Where “and” joins values, the source holds several entries; their conditions need not be identical. Identical values can stand only once.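 All cell lines were grown in 96-well plates and treated with compound for 48 hours. At the GI50, growth is halved. TGI: concentration producing complete growth inhibition.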 Some results are limits rather than exact numbers.

Here are results for nine molecules from PubChem BioAssay (NCI).

What all share (assay): growth of human tumour cells (NCI), 48 h
Test [1] has as its system A498 renal.
The test system of test [2] is A549 NSCLC.
Test [3] has as its system DU-145 prostate.
In test [4] the test system is HOP-62 NSCLC.
In test [5] the test system is NCI/ADR-RES ovarian.
Test [6] has as its system OVCAR-4 ovarian.
Test [7] concerns SK-OV-3 ovarian.
The subject of test [8] is SR leukemia.
Test [9] relates to UACC-257 melanoma.
The subject of test [10] is UACC-62 melanoma.

For the molecule `Clc1cccc(Cl)c1C1CSc2ccccc2N=C1c1ccccc1` (centres undefined), the GI50 in test [1] is 13.1 µM; in test [2], 12.2 µM; in test [3], 5.74 µM; in test [4], 20.7 µM; in test [5], 4.14 µM; in test [6], 3.11 µM. Also, the GI50 in [7] is 11.5 µM; in test [8], 3.42 µM; in test [9] it was 13.5 µM; in [10], 5.9 µM. Besides, the TGI in test [1] was 26.6 µM; in test [2], 28.1 µM; in test [3], 18.3 µM; in test [4] it was 41 µM; in [5], 32 µM; in test [6] it was 16 µM. For the same molecule, the TGI is 24.4 µM in test [7], above 100 µM in test [8], 27 µM in [9] and 19.6 µM in [10].

For the molecule `C=CC(=O)NCc1cccc(Nc2ncc(Br)c(NCCCNC(=O)C3CCC3)n2)c1`, the GI50 was 0.549 µM in [1]; 1.49 µM and 0.901 µM in [2]; 1.25 µM and 1.36 µM in test [3]; 0.448 µM and 0.152 µM in test [4]; 7.28 µM and 7.94 µM in test [5]; 1.67 µM and 1.2 µM in test [6]. Moreover, the GI50 in [7] was 0.9 µM; in test [8] it was 0.394 µM; in [9], 2.57 µM and 3.46 µM; in test [10], 2.3 µM and 2.9 µM. Further, the TGI in test [1] is 2.08 µM; in test [2] it was 12.5 µM and 11.6 µM; in test [3] it was 12.5 µM and 19.4 µM; in test [4], 9.77 µM and 4.33 µM; in [5], 12.5 µM and > 25 µM; in test [6], 6.07 µM and 12.8 µM. In addition, the TGI was 9.84 µM in test [7]; 12.5 µM in test [8]; 12.5 µM and 20.6 µM in test [9]; 5.23 µM and 7.37 µM in test [10].

For the molecule `NC(=O)c1ccc(NN=O)nc1`, the TGI in [1], in [2], in test [3], in [4], in test [5] and in [6] was above 100 µM throughout. Besides, the TGI in test [7], in [8], in [9] and in [10] was above 100 µM throughout.

As for `O=[N+]([O-])c1ccc(Sc2ncnc3nc[nH]c23)c2nonc12`, the GI50 in test [1] is 8.46 µM; in [2], 29.6 µM; in [3] it was 5.16 µM; in [4], 4.97 µM; in [5], 5.16 µM; in test [6], 0.811 µM. Moreover, the GI50 in test [7] was 3.75 µM; in [8], 0.723 µM; in [9], 4.52 µM; in [10] it was 4.91 µM. The TGI in test [1] was 20.5 µM; in [2], above 100 µM; in test [3], above 100 µM; in [4], 20.7 µM; in test [5] it was 28.9 µM; in test [6], 16.9 µM. Besides, the TGI worked out at 16.2 µM in test [7], 13 µM in [8], 18.7 µM in [9] and 17.3 µM in [10].

In the case of `COc1cc(OC)c(/C=C\c2ccnc3ccccc23)c(OC)c1`, the TGI in [1] amounted to 9.87 µM; in test [2], 18.6 µM; in test [3] it was 17.2 µM; in [4], 18.6 µM; in [5], 10.2 µM; in [6], 16.5 µM. The TGI in test [7] was found to be 20.5 µM; in test [8], 12.6 µM; in test [9] it was 17.8 µM; in test [10], 14.6 µM.

In the case of `C=CC(C1=CC(=O)C(OC)=CC1=O)c1ccccc1` (centres undefined), the TGI was above 100 µM in test [1]; above 62 µM in test [2]; 30.2 µM in test [3]; 32.4 µM in test [4]; 44.8 µM in test [5]; 30.1 µM in test [6]. Further, the TGI in test [7] was found to be 42.2 µM; in [8], 26.5 µM; in test [9], 34.8 µM; in test [10], 29 µM.

On to `O=C1c2ccccc2S(=O)(=O)N1CSC(=S)N1CCCCC1`, for which the GI50 in [1], in [2], in [3], in test [4], in test [5] and in test [6] was above 100 µM in each case. Also, the GI50 in test [7] is above 100 µM; in [8] it was 0.266 µM; in [9], above 100 µM. Further, the TGI in test [1], in test [2], in [3], in test [4], in test [5] and in test [6] was above 100 µM each time. For the same molecule, the TGI in test [7] was above 100 µM; in test [8], above 100 µM; in [9] it was above 100 µM; in [10] it was above 57.3 µM.

For `COc1ccc(C(SCC(N)C(=O)O)(c2ccccc2)c2ccccc2)cc1` (centres undefined), the GI50 in test [1] is 20.8 µM; in test [2], 0.594 µM; in test [3] it was 0.272 µM; in [4], 0.392 µM; in [5], 2.12 µM; in [6], 29.7 µM. Further, the GI50 in test [7] was 0.19 µM; in [8], 3.21 µM; in test [9], 26.3 µM; in [10], 0.171 µM. Also, the TGI in test [1] was above 84.6 µM; in test [2], above 100 µM; in [3] it was 0.7 µM; in test [4], above 84.5 µM; in test [5] it was 33.7 µM; in [6], above 100 µM. For the same molecule, the TGI is above 100 µM in [7], above 100 µM in test [8], above 100 µM in test [9] and above 56.7 µM in [10].

On to `Clc1ccc2c(c1)N(CCCN1CCCC1)c1ccccc1S2`, for which the GI50 in test [1] was 2.2 µM; in test [2] it was 11 µM; in test [3] it was 8.61 µM; in test [4], 12.6 µM; in test [5], 5.34 µM; in test [6], 7.82 µM. For the same molecule, the GI50 is 6.22 µM in test [7], 2.01 µM in [8], 11.4 µM in test [9] and 10.2 µM in test [10]. The TGI in test [1] was found to be 10.2 µM; in test [2], 24.5 µM; in [3] it was 20.9 µM; in test [4] it was 26.6 µM; in [5], 18.8 µM; in [6], 21.2 µM. The TGI in test [7] was 19 µM; in test [8], 4.91 µM; in test [9], 23.8 µM; in test [10] it was 25.2 µM.
